# Test results from patent US20240307351A1, “AGENT FOR ANTI-AGING OR FOR CELLULAR REJUVENATION” (TOHOKU UNIVERSITY, priority 2022, published 2024).
# Tests used:
# [1] = test system: cochlear cells of the inner ear of wild-type mice; assay: RNA-Seq and ChIP-Atlas analysis of cochlear cells of wild-type mice; assay type: in vivo, mouse; settings: wild-type C57BL6 mice, oral, 50 mg/kg/day, 2 weeks, Table 6
# Description: Water-suspended Compound #5 was orally administered to C57BL6 mice (6 weeks old) at a dose of 50 mg/kg/day per kg of mouse weight for 2 weeks ([MA5 addition group], n=5).
# In addition, water was orally administered to C57BL6 mice (6 weeks old) for […] ([Vehicle group], n=5).
# RNA sequence (RNA-Seq) analysis was performed on cochlear cells of the inner ear of wild-type mice of [MA5 addition group] and [Vehicle group] described above, and genes whose expression levels changed (increased or decreased) in [MA5 addition group] as compared with [Vehicle group] were identified. Using the results of these gene names, integrated analysis with ChIP-Atlas was performed to investigate transcription factors possibly related to these genes.
# PPARγ Gene = assay: Quantitative PCR of PPARγ Gene in brown adipocytes of Ndufs4−/− mice; assay type: in vivo, mouse; settings: 10 mg/day per kg, 50 days, vs CMC administration group
# Description: (§1) Compound #5 was administered to NDUFS4 homozygous knockout mice (Ndufs4−/−mice) (4 weeks old) at a dose of 10 mg/day per kg of mouse weight for 50 days ([Compound #5 administration group]).
# (§2) In addition, CMC (carboxymethylcellulose) was administered to NDUFS4 homozygous knockout mice (Ndufs4−/−mice) at a dose of 10 mg/day per kg of mouse weight for 50 days ([CMC administration group; Control group]).
# (§3) Brown adipocytes were collected from the mice of [Compound #5 administration group] and [CMC administration group]. Total RNA was extracted from the brown adipocytes, and cDNA was prepared therefrom and used for measurement of mRNA expression level. The measurement was performed by a quantitative PCR method. The expression level of mRNA was determined with a relative ratio to β-actin used as an internal standard. As primers and probes, the following commercially available products (manufactured by Thermo Fisher Scientific Inc., and the like) were used. • Mouse Acts (actin beta, β-actin) Mm02619580_g1, Cat #4331182 • Mouse Ucp1 (uncoupling protein 1), Mm00494069_m1, Cat #4331182 • Mouse Pparg (PPARγ, peroxisome proliferator activated receptor gamma), Mm00440945_m1, Cat #4331182p • Mouse Fabp4 (fatty acid binding protein 4), Mm00445880_m1, Cat #4331182
# [2] = test system: C57BL6 mice (12 weeks old); assay: Treadmill running test of young mice; assay type: in vivo, mouse; settings: oral, 2 months; for decrease in the running time on a treadmill: young C57BL6 mice (12 weeks old); for time to exhaustion: young C57BL6 mice, compared to Vehicle group
# Description: Water-suspended Compound #5 was orally administered to C57BL6 mice (12 weeks old) at a dose of 50 mg/kg/day per kg of mouse weight for 2 months ([MA5 high dose addition group], n=5).
# Water-suspended Compound #5 was orally administered to C57BL6 mice (12 weeks old) at a dose of 10 mg/kg/day per kg of mouse weight for 2 months ([MA5 low dose addition group], n=5).
# In addition, water was orally administered to C57BL6 mice (12 weeks old) for 2 months ([Vehicle group], n=5).
# FABP4 Gene = assay: Quantitative PCR of FABP4 Gene in brown adipocytes of Ndufs4−/− mice; assay type: in vivo, mouse; settings: 10 mg/day per kg, 50 days, vs CMC administration group
# Description: as §1, §2, §3
# [3] = test system: NDUFS4 homozygous knockout mice (Ndufs4−/−mice); assay: HE staining of brown adipose tissue of Ndufs4−/− mice; assay type: in vivo, mouse; settings: 10 mg/day per kg, 50 days, compared with CMC administration group
# Description: Compound #5 was administered to NDUFS4 homozygous knockout mice (Ndufs4−/−mice) (28 days old) at a dose of 10 mg/day per kg of mouse weight for 50 days ([Compound #5 administration group]).
# as §2
# Since the NDUFS4 homozygous knockout mice are mice with abnormal mitochondrial function and the abnormal mitochondrial function is one of aging phenomena, the NDUFS4 homozygous knockout mice can be used as one type of aging model mice.
# [4] = test system: Mouse inner ear cells HEI-OC1; assay: RNA-Seq and ChIP-Atlas analysis of HEI-OC1 cells; assay type: cell-based; settings: 10 µM
# Description: Mouse inner ear cells HEI-OC1 were cultured in 10% FBS-containing DMEM medium containing 10 µM of Compound #5 (dissolved in 0.1% DMSO) ([MA5 addition group], n=5).
# In addition, mouse inner ear cells HEI-OC1 were cultured in 10% FBS-containing DMEM medium containing […] 0.1% DMSO ([Vehicle group], n=5).
# RNA sequencing (RNA-Seq) analysis was performed on the HEI-OC1 cells in [MA5 addition group] and [Vehicle group] to identify genes whose expression levels changed (increased or decreased) in [MA5 addition group] as compared with [Vehicle group]. Using the results of these gene names, integrated analysis with ChIP-Atlas was performed to investigate transcription factors possibly related to these genes. The results of ChIP enrichment analysis (ChEA) are shown in Table 7, and the results of analysis by ENCODE and ChEA consensus TFs from ChIP-X are shown in Table 8.
# [5] = test system: fibrosis-related genes (aSMA and Colla1); assay: Real-time PCR of fibrosis-related genes in renal tissue of α-Klotho gene-deficient mice; assay type: in vivo; settings: oral, 10 mg/kg mouse weight/day, 28 to 60 days old
# Description: Water-suspended Compound #5 was orally administered to α-Klotho gene-deficient mice (28 days old) at a dose of 10 mg/kg mouse weight/day until 60 days old (Klotho homo KO mouse administration group, n=3).
# In addition, water was orally administered to wild-type mice (28 days old) and α-Klotho gene-deficient mice (28 days old) until 60 days old (n=3 for each of the wild-type non-administrated group and the Klotho homo KO mouse non-administrated group).
# Renal tissue was collected from each 60-day-old mouse according to a standard method, total RNA was extracted using a commercially available column extraction kit (RNeasy Micro Kit, manufactured by QIAGEN), and cDNA was synthesized from 1 μg of total RNA using ReverTra Ace(manufactured by TOYOBO CO., Ltd.). Thereafter, to quantify mRNA derived from two types of fibrosis-related genes (aSMA and Colla1) and mRNA derived from GAPDH as an internal standard, real-time PCR was performed according to a standard method using QuantStudio 5 Real-time PCR system (manufactured by Applied Biosystems) as a measuring instrument and THUNDERBIRD SYBR qPCR MasterMix (manufactured by TOYOBO CO., Ltd.) as a reaction liquid.
compound,measurement,setting,value
"O=C(CC(C(=O)O)c1c[nH]c2ccccc12)c1ccc(F)cc1F (centres unmarked) [Compound #5, 4-(2,4-difluorophenyl)-2-(1H-indole-3-yl)-4-oxo-butanoic acid]",transcription factors related to the genes whose expression increased (ChIP-Atlas),[1],SUZ^12 and EZH2
same,expression of PPARγ Gene,PPARγ Gene,significantly higher
same,decrease in the running time on a treadmill,[2]; 10 mg/kg/day (low dose),inhibited
same,decrease in the running time on a treadmill,[2]; 50 mg/kg/day (high dose),inhibited
same,time to exhaustion,[2]; 10 mg/kg/day (low dose),significantly improved
same,time to exhaustion,[2]; 50 mg/kg/day (high dose),significantly improved
same,expression of FABP4 Gene,FABP4 Gene,higher
same,size of lipid droplets in brown adipose tissue,[3],decrease
same,"transcription factors related to genes whose expression increased (ChIP enrichment analysis, ChEA)",[4]; Table 7,"SUZ^12 and EZH2, which are factors constituting polycomb repressive complex-2 (PRC2), which methylates histones, and SOX2"
same,transcription factors related to genes whose expression increased (ENCODE and ChEA consensus TFs from ChIP-X),[4]; Table 8,"PPARG (peroxisome proliferator-activated receptor γ), which is a longevity-related gene, MYC, which is one of the reprogramming factors necessary for the production of iPS cells, TRIM28"
same,renal fibrosis progressing with aging (aSMA and Colla1 mRNA),[5],inhibited
